Test results reported in the kinase profiling compilation of Christmann-Franck et al. (2016).

Tests used:
Test in all cases: radiometric filter-binding kinase assay, Kinase HotSpot
Details in all cases: compound 0.5 µM; ATP 10 µM
[1] = target: SRPK2 (human) (UniProt P78362)
[2] = target: PTK6 (human) (UniProt Q13882)
[3] = target: MYO3B (human) (UniProt Q8WXR4)
[4] = target: CAMK1D (human) (UniProt Q8IU85)
[5] = target: EPHB2 (human) (UniProt P29323)
[6] = target: TLK2 (human) (UniProt Q86UE8)
[7] = target: STK24 (human) (UniProt Q9Y6E0)
[8] = target: LTK (human) (UniProt P29376)
[9] = target: STK38 (human) (UniProt Q15208)
[10] = target: CDC42BPA (human) (UniProt Q5VT25)
[11] = target: PRKACG (human) (UniProt P22612)
[12] = target: ACVRL1 (human) (UniProt P37023)
[13] = target: TGFBR2 (human) (UniProt P37173)
[14] = target: TTK (human) (UniProt P33981)
[15] = target: CHEK1 (human) (UniProt O14757)
[16] = target: OXSR1 (human) (UniProt O95747)
[17] = target: DAPK1 (human) (UniProt P53355)
[18] = target: EPHA6 (human) (UniProt Q9UF33)
[19] = target: MAPK12 (human) (UniProt P53778)
[20] = target: IRAK1 (human) (UniProt P51617)
[21] = target: PRKCG (human) (UniProt P05129)
[22] = target: CAMKK2 (human) (UniProt Q96RR4)
[23] = target: RPS6KB2 (human) (UniProt Q9UBS0)
[24] = target: NEK7 (human) (UniProt Q8TDX7)
[25] = target: PIM1 (human) (UniProt P11309)
[26] = target: DMPK (human) (UniProt Q09013)
[27] = target: ULK3 (human) (UniProt Q6PHR2)
[28] = target: ADRBK1 (human) (UniProt P25098)
[29] = target: TSSK1B (human) (UniProt Q9BXA7)
[30] = target: BRAF (human) (UniProt P15056)
[31] = target: NEK4 (human) (UniProt P51957)
[32] = target: DYRK1A (human) (UniProt Q13627)
[33] = target: LCK (human) (UniProt P06239)
[34] = target: PDGFRB (human) (UniProt P09619)
[35] = system: ARAF (human), P10398 [Y301D/Y302D]
[36] = target: EGFR (human) (UniProt P00533)
[37] = target: FGFR3 (human) (UniProt P22607)
[38] = target: CSNK2A2 (human) (UniProt P19784)
[39] = target: TYRO3 (human) (UniProt Q06418)
[40] = target: HIPK4 (human) (UniProt Q8NE63)
[41] = target: ABL1 (human) (UniProt P00519)

Chain of PTK6 (human) (Q13882 whole entry, looked up): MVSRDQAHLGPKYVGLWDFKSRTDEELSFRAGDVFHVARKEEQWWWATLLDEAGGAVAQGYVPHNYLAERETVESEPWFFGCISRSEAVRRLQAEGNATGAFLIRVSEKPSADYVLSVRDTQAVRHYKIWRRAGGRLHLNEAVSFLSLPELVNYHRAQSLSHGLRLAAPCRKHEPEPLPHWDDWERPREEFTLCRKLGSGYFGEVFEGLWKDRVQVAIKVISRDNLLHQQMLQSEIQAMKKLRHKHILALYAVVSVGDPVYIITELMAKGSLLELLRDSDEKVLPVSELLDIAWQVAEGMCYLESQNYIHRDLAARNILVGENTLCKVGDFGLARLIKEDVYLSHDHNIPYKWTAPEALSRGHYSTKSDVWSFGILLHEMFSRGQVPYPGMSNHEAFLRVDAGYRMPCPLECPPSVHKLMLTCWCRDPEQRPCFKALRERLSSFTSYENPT
Chain of SRPK2 (human) (P78362 whole entry, looked up): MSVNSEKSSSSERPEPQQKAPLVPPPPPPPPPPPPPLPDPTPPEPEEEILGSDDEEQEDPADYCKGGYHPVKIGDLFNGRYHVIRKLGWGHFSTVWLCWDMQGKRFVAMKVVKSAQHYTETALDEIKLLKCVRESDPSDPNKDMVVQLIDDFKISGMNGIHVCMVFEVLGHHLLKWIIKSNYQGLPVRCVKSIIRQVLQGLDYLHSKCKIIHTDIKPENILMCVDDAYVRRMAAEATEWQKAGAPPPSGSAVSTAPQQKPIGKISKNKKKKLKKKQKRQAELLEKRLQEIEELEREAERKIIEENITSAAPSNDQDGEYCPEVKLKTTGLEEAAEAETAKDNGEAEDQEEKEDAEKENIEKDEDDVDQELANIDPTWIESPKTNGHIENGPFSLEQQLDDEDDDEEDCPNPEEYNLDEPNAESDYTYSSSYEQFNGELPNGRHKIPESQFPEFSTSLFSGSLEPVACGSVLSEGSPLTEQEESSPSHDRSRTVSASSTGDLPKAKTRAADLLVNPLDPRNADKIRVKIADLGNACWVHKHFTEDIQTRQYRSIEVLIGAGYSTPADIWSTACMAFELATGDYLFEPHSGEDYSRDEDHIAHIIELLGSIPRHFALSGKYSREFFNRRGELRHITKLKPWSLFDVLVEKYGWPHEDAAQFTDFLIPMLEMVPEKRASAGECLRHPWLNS
Chain of CHEK1 (human) (O14757 whole entry, looked up): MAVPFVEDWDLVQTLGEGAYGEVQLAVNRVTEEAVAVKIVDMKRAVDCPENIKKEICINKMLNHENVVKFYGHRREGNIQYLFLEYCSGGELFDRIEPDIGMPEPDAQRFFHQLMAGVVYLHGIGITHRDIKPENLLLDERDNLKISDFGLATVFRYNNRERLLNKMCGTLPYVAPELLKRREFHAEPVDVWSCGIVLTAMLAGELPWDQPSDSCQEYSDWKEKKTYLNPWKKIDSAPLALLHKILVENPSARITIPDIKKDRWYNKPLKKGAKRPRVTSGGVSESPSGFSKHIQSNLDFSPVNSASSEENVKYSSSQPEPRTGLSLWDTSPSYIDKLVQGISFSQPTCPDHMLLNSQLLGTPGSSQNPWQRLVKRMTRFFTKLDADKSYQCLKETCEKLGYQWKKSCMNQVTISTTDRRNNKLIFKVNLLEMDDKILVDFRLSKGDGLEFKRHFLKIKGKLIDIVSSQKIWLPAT
Chain of CAMK1D (human) (Q8IU85 whole entry, looked up): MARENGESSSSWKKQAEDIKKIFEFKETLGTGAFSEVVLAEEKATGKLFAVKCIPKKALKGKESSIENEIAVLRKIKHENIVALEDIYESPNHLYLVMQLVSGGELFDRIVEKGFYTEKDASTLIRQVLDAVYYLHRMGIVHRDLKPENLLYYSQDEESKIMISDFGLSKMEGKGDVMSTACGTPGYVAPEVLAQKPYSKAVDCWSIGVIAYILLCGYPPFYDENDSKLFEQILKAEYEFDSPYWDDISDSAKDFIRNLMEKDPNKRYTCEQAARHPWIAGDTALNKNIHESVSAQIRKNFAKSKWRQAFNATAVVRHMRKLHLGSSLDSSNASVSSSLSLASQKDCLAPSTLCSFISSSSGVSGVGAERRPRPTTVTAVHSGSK
Chain of NEK4 (human) (P51957 whole entry, looked up): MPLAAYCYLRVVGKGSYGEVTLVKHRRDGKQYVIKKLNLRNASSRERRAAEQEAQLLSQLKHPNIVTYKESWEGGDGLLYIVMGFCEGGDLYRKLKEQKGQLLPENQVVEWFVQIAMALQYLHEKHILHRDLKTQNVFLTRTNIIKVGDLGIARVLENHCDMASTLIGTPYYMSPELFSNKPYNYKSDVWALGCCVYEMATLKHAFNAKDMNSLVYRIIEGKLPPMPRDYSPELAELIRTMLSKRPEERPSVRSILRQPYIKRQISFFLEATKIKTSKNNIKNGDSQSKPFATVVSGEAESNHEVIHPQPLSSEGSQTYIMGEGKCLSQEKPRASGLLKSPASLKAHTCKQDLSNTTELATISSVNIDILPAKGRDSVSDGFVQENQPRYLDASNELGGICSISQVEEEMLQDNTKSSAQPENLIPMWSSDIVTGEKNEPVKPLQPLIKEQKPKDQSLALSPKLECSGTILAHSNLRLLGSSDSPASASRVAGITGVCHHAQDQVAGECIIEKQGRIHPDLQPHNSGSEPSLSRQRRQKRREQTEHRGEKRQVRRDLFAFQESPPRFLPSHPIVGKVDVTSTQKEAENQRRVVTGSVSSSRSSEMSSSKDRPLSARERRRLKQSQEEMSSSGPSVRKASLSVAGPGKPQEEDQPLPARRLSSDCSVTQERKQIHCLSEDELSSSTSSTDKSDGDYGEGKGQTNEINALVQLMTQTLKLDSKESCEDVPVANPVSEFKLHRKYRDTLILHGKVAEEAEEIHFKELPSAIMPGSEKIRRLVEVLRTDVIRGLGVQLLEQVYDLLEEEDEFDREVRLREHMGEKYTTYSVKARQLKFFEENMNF
Chain of LCK (human) (P06239 whole entry, looked up): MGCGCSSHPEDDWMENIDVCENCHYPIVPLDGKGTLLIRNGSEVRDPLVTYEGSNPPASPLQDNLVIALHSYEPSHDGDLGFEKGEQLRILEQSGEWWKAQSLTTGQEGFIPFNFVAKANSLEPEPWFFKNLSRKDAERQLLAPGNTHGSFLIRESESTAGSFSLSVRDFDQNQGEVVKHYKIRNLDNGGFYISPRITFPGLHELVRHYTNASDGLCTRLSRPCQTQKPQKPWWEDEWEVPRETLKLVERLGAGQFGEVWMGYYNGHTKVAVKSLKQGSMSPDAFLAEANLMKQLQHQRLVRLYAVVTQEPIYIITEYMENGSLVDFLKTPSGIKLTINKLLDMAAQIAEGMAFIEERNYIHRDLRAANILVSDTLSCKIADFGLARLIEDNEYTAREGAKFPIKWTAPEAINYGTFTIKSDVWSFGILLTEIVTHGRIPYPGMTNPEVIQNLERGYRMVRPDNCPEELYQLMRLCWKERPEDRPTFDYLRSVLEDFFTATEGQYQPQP
Chain of RPS6KB2 (human) (Q9UBS0 whole entry, looked up): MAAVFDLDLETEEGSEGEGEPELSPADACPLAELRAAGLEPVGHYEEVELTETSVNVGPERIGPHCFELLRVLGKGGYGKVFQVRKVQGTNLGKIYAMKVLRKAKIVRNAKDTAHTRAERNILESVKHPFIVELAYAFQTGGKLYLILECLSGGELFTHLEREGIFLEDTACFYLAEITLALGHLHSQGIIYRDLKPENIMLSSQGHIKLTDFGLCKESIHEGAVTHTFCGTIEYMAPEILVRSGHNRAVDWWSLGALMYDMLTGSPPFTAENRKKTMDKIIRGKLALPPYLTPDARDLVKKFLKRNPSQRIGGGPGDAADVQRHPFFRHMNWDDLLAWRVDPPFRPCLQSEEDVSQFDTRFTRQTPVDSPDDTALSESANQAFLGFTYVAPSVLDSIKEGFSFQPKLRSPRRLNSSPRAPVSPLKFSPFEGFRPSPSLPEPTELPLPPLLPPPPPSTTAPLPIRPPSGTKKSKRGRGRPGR
Chain of LTK (human) (P29376 whole entry, looked up): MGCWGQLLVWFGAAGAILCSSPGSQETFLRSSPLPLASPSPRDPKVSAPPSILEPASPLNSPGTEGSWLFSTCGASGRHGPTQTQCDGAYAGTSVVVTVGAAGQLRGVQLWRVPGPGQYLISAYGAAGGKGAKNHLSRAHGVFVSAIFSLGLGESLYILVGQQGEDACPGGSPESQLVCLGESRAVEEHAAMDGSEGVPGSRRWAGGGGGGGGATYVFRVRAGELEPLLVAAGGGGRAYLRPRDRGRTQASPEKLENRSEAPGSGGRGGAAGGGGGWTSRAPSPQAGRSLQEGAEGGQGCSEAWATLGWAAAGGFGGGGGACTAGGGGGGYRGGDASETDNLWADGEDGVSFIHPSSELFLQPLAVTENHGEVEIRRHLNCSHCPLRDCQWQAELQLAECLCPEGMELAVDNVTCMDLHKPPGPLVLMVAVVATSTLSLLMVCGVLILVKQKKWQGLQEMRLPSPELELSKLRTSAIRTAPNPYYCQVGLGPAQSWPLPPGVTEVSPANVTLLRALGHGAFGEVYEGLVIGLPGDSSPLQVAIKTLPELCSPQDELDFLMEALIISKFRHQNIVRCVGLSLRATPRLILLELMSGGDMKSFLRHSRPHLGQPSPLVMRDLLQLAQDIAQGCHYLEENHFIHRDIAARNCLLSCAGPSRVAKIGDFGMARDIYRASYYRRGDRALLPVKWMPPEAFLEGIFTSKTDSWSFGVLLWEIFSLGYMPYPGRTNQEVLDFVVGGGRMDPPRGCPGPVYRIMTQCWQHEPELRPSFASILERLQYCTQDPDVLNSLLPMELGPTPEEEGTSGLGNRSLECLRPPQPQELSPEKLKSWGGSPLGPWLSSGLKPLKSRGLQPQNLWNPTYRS
Chain of PIM1 (human) (P11309 whole entry, looked up): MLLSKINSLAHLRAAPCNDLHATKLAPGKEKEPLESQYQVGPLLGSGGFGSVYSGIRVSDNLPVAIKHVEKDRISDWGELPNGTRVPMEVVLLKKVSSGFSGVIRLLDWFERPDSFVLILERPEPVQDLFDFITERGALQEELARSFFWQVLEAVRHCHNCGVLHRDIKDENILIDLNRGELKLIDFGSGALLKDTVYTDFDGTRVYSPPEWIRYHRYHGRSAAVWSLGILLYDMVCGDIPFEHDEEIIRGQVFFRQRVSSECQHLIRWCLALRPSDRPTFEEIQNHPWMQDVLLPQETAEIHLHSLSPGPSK

Compound C#Cc1cccc(Nc2ncnc3cc(OCCOC)c(OCCOC)cc23)c1 has a residual activity [1] of 101%, a residual activity [2] of 85.9% and a residual activity [3] of 84.4%. It also gave a residual activity [4] of 98.8%, a residual activity [5] of 95.1% and a residual activity [6] of 85.9%. The residual activity [7] was 115%, the residual activity [8] was 66.3% and the residual activity [9] was 101%. For the same compound, the residual activity [10] was 88.5%, the residual activity [11] was 108% and the residual activity [12] was 101%. It also gave a residual activity [13] of 91.8%, a residual activity [14] of 91.8% and a residual activity [15] of 95.1%. It also gave a residual activity [16] of 102%, a residual activity [17] of 103% and a residual activity [18] of 40.4%. It also gave a residual activity [19] of 97.8%, a residual activity [20] of 95.9% and a residual activity [21] of 84.1%. For the same compound, the residual activity [22] was 97.1%, the residual activity [23] was 103% and the residual activity [24] was 97.4%. It also gave a residual activity [25] of 97%, a residual activity [26] of 96.9% and a residual activity [27] of 105%. For the same compound, the residual activity [28] was 92.9% and the residual activity [29] was 78.9%.
For CC(C)n1cnc2c(Nc3cccc(Cl)c3)nc(NCCO)nc21, the residual activity [1] was 37.1%, the residual activity [2] was 90.2% and the residual activity [30] was 97%. The residual activity [31] was 89.1%, the residual activity [4] was 98.1% and the residual activity [32] was 88.6%. The residual activity [33] was 84.9%, the residual activity [5] was 89.8% and the residual activity [34] was 94.7%. For the same compound, the residual activity [7] was 87.7%, the residual activity [35] was 107% and the residual activity [8] was 85.3%. The residual activity [36] was 91.5%, the residual activity [37] was 95.1% and the residual activity [10] was 83.9%. The residual activity [12] was 103%, the residual activity [13] was 70.2% and the residual activity [14] was 82.5%. The residual activity [15] was 87.1%, the residual activity [16] was 97.7% and the residual activity [17] was 78.8%. For the same compound, the residual activity [19] was 102%, the residual activity [20] was 101% and the residual activity [38] was 91.8%. The residual activity [21] was 93.6%, the residual activity [22] was 68.2% and the residual activity [23] was 97%. It also gave a residual activity [24] of 93.9%, a residual activity [25] of 93.9% and a residual activity [39] of 92.7%. For the same compound, the residual activity [40] was 94.6%, the residual activity [41] was 73.3% and the residual activity [26] was 98.5%. The residual activity [28] was 96% and the residual activity [29] was 91.9%.
In the case of Nc1n[nH]c2nnc(-c3c(-c4ccccc4)nn4ccccc34)cc12, the residual activity [1] is reported as 73.8%, the residual activity [2] is reported as 90.8% and the residual activity [30] is reported as 95.7%. For the same compound, the residual activity [31] was 88.4%, the residual activity [4] was 95.9% and the residual activity [32] was 102%. It also gave a residual activity [33] of 95.1%, a residual activity [5] of 93.1% and a residual activity [34] of 114%. For the same compound, the residual activity [7] was 74.6%, the residual activity [35] was 98.4% and the residual activity [8] was 90.5%. For the same compound, the residual activity [36] was 83.9%, the residual activity [37] was 102% and the residual activity [10] was 89.7%. For the same compound, the residual activity [12] was 106%, the residual activity [13] was 112% and the residual activity [14] was 110%. It also gave a residual activity [15] of 103%, a residual activity [16] of 102% and a residual activity [17] of 95.9%. For the same compound, the residual activity [19] was 104%, the residual activity [20] was 105% and the residual activity [38] was 93.4%. It also gave a residual activity [21] of 103%, a residual activity [22] of 101% and a residual activity [23] of 104%. It also gave a residual activity [24] of 95.3%, a residual activity [25] of 100% and a residual activity [39] of 97.6%. It also gave a residual activity [40] of 105%, a residual activity [41] of 83.3% and a residual activity [26] of 103%. For the same compound, the residual activity [28] was 95% and the residual activity [29] was 102%.
With CCN1/C(=C/C(C)=O)Sc2ccc(OC)cc21 the residual activity [1] was 95.8%, the residual activity [2] was 85.3% and the residual activity [30] was 95.3%. The residual activity [31] was 92.8%, the residual activity [4] was 105% and the residual activity [32] was 28.9%. For the same compound, the residual activity [33] was 99.4%, the residual activity [5] was 98.3% and the residual activity [34] was 107%. For the same compound, the residual activity [7] was 82.2%, the residual activity [35] was 128% and the residual activity [8] was 87.1%. For the same compound, the residual activity [36] was 99.1%, the residual activity [37] was 99.1% and the residual activity [10] was 85%. For the same compound, the residual activity [12] was 102%, the residual activity [13] was 78.5% and the residual activity [14] was 88.7%. The residual activity [15] was 87.9%, the residual activity [16] was 93.5% and the residual activity [17] was 109%. For the same compound, the residual activity [19] was 99.8%, the residual activity [20] was 114% and the residual activity [38] was 89.7%. The residual activity [21] was 75.4%, the residual activity [22] was 95.5% and the residual activity [23] was 107%. It also gave a residual activity [25] of 17.9%, a residual activity [40] of 94% and a residual activity [41] of 92.9%. For the same compound, the residual activity [26] was 101%, the residual activity [28] was 95.5% and the residual activity [29] was 110%.
